Experiments:
Assay in all cases: relative viability (nuclei count vs DMSO), 5 days (fraction); higher = more cells survive
[1] = compound: Cc1ccccc1C(C(=O)NC1CCCCC1)N(C(=O)Cn1ccnc1C)c1cccc(F)c1 [IDH-C35] + Nc1nc2[nH]cc(CCc3ccc(C(=O)N[C@@H](CCC(=O)O)C(=O)O)cc3)c2c(=O)[nH]1 [Pemetrexed] (partner 0.2 µM)
Method in brief: (§1)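 Lung cancer cell lines in 1536-well plates got either a single drug or a fixed anchor-drug dose together with five library-drug doses (not always all listed) in √10 steps, by pin tool, on the day after seeding. Nuclei were counted after 5 days, and relative viability is the treated-to-vehicle ratio of nuclei counts. Values are medians of duplicate plates.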

[2] = compound: CC1=C(C(=NN1)C)CC2=C(C3=C(S2)N(C(=O)N(C3=O)C)CC(C)C)C(=O)N4C[C@@H](CO4)O + Cc1nc(NC(=O)N2CCC[C@H]2C(N)=O)sc1-c1ccnc(C(C)(C)C(F)(F)F)c1 [Alpelisib] (partner 2 µM)
Method in brief: as §1

[3] = compound: Cc1ccccc1C(C(=O)NC1CCCCC1)N(C(=O)Cn1ccnc1C)c1cccc(F)c1 [IDH-C35]
Method in brief: (§2)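 MetaXpress counted nuclei in 4× images of lung cancer cell lines that had been fixed, permeabilised and Hoechst-stained in one step. Before that, cells in 1536-well plates were kept overnight at 37 °C, pinned with five √10-spaced library-drug doses on vehicle-anchored plates, and cultured 5 days without medium change. Viability takes treated-well nuclei over vehicle-well nuclei and uses the median across plates. Plates were accepted only at control CV below 25% and at least one doubling.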

[4] = compound: CC1=C(C(=NN1)C)CC2=C(C3=C(S2)N(C(=O)N(C3=O)C)CC(C)C)C(=O)N4C[C@@H](CO4)O
Method in brief: as §2

Cell Line | relative viability ([1]; first compound 0.08 µM) | relative viability ([1]; first compound 0.253 µM) | relative viability ([1]; first compound 0.8 µM) | relative viability ([1]; first compound 2.53 µM) | relative viability ([1]; first compound 8 µM) | relative viability ([2]; first compound 0.0025 µM) | relative viability ([2]; first compound 0.007906 µM) | relative viability ([2]; first compound 0.025 µM) | relative viability ([2]; first compound 0.07906 µM) | relative viability ([2]; first compound 0.25 µM) | relative viability ([3]; 0.08 µM) | relative viability ([3]; 0.253 µM) | relative viability ([3]; 0.8 µM) | relative viability ([3]; 2.53 µM) | relative viability ([3]; 8 µM) | relative viability ([4]; 0.0025 µM) | relative viability ([4]; 0.007906 µM) | relative viability ([4]; 0.025 µM) | relative viability ([4]; 0.07906 µM) | relative viability ([4]; 0.25 µM)
NCI-H358 | 0.168 | 0.179 | 0.175 | 0.184 | 0.172 | 0.893 | 0.906 | 0.78 | 0.903 | 1.04 | 0.942 | 0.984 | 0.807 | 0.942 | 0.919 | 1.09 | 0.992 | 1.01 | 1.02 | 0.983
NCI-H441 | 0.256 | 0.272 | 0.269 | 0.292 | 0.244 | 0.83 | 0.602 | 0.616 | 1.06 | 0.902 | 1.11 | 0.892 | 1 | 0.982 | 0.909 | 1 | 1.05 | 0.901 | 1.08 | 1.13
NCI-H460 | 0.0621 | 0.0643 | 0.0648 | 0.0655 | 0.0759 | 0.721 | 0.493 | 0.575 | 0.492 | 0.571 | 1.01 | 0.99 | 1.01 | 0.957 | 0.94 | 1.02 | 1.08 | 0.955 | 0.968 | 1.06
NCI-H520 | 0.776 | 0.548 | 0.715 | 0.699 | 0.622 | 0.835 | 1.04 | 0.612 | 0.536 | 0.836 | 1.01 | 1.05 | 0.87 | 0.91 | 1 | 1.03 | 0.914 | 0.644 | 0.79 | 0.628
NCI-H596 | 0.473 | 0.475 | 0.529 | 0.549 | 0.455 | 0.474 | 0.53 | 0.482 | 0.567 | 0.589 | 0.884 | 0.938 | 0.972 | 0.925 | 1.01 | 1.09 | 1.13 | 0.978 | 1.04 | 1.11
NCI-H647 | 0.186 | 0.161 | 0.175 | 0.171 | 0.167 | 1.16 | 1.03 | 1.19 | 1.32 | 1.75 | 1.03 | 0.94 | 0.972 | 0.936 | 0.949 | 1.03 | 1.1 | 0.932 | 0.915 | 0.934
NCI-H650 | 0.911 | 0.96 | 0.893 |  | 0.893 | 1.28 | 1.11 | 0.972 | 1 | 1.18 | 0.894 | 1.2 | 0.981 |  | 0.962 | 0.987 | 0.91 | 0.869 | 0.919 | 1.06
NCI-H661 | 0.95 | 0.948 | 0.893 | 0.901 | 0.879 | 0.914 | 0.803 | 0.559 | 0.654 | 0.421 | 0.994 | 0.971 | 0.978 | 0.983 | 0.91 | 0.948 | 0.997 | 0.956 | 0.946 | 0.964

Reference: the supplement of paper PMC10307832
